In the NIST ThermoML archive (doi:10.1021/je800481n):
Numbers after ± are expanded uncertainties.

What was measured:
[1] = Boiling temperature at pressure P; settings: 101.3 kPa; Liquid; Ebulliometric method (Recirculating still)
[2] = refractive index (Na D-line) (dimensionless); settings: 101.3 kPa, Liquid, Standard Abbe refractometry

| SMILES | Boiling temperature at pressure P [1] | refractive index ([2]; 298.15 K) | refractive index ([2]; 301.15 K) |
| --- | --- | --- | --- |
| CC(=O)N(C)C [N,N-dimethylethanamide] | 165.62 ± 0.12 °C | 1.43507 ± 0.00051 |  |
| CC(C)c1ccccc1 [isopropylbenzene] | 152.29 ± 0.12 °C | 1.48829 ± 0.00037 |  |
| CNC(C)=O [N-methylacetamide] | 206.00 ± 0.12 °C |  | 1.42854 ± 0.00037 |
